From ChEMBL document CHEMBL1201862, “PubChem BioAssay data set” (2004)
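Compound exposure: 48 hours, 5 concentrations, 96-well plates. GI50 is the concentration that inhibits growth by half.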 Activity calls are given as the source filed them. No stated cut-off is given here; in the data, active = GI50 up to about 1.1 µM and inactive = higher.

Columns and labels:
Test in all cases: NCI tumour cell line growth inhibition, 48 h
786-0 = tested on: 786-0
A498 = tested on: A498
A549 = tested on: A549
ACHN = tested on: ACHN
BT-549 = tested on: BT-549
CCRF-CEM = tested on: CCRF-CEM
COLO 205 = tested on: COLO 205
DU-145 = tested on: DU-145
EKVX = tested on: EKVX
HCC 2998 = tested on: HCC 2998
HCT-116 = tested on: HCT-116
HCT-15 = tested on: HCT-15
HL-60 = tested on: HL-60
HOP-62 = tested on: HOP-62
HOP-92 = tested on: HOP-92
HT-29 = tested on: HT-29
Hs-578T = tested on: Hs-578T
IGROV-1 = tested on: IGROV-1
K562 = tested on: K562
KM12 = tested on: KM12
M14 = tested on: M14
MCF7 = tested on: MCF7
MDA-MB-231 = tested on: MDA-MB-231
MDA-MB-435 = tested on: MDA-MB-435
MDA-N = tested on: MDA-N
MOLT-4 = tested on: MOLT-4
NCI-H226 = tested on: NCI-H226
NCI-H23 = tested on: NCI-H23
NCI-H460 = tested on: NCI-H460
NCI-H522 = tested on: NCI-H522
NCI/ADR-RES = tested on: NCI/ADR-RES
OVCAR-3 = tested on: OVCAR-3
OVCAR-4 = tested on: OVCAR-4
OVCAR-5 = tested on: OVCAR-5
OVCAR-8 = tested on: OVCAR-8
PC-3 = tested on: PC-3
RPMI-8226 = tested on: RPMI-8226
RXF 393 = tested on: RXF 393
SF-268 = tested on: SF-268
SF-295 = tested on: SF-295
SF-539 = tested on: SF-539
SK-MEL-28 = tested on: SK-MEL-28
SK-MEL-5 = tested on: SK-MEL-5
SK-OV-3 = tested on: SK-OV-3
SN12C = tested on: SN12C
SNB-19 = tested on: SNB-19
SNB-75 = tested on: SNB-75
SR = tested on: SR
SW-620 = tested on: SW-620
T47D = tested on: T47D
TK-10 = tested on: TK-10
U-251 = tested on: U-251
UACC-257 = tested on: UACC-257
UACC-62 = tested on: UACC-62
UO-31 = tested on: UO-31
CAKI-1 = tested on: CAKI-1
LOX IMVI = tested on: LOX IMVI
Malme-3M = tested on: Malme-3M
SK-MEL-2 = tested on: SK-MEL-2

CCCCCC(=O)N[C@@H](c1ccccc1)C(O)C(=O)OC1C[C@@]2(O)C(OC(=O)c3ccccc3)C3[C@](C)(C(=O)[C@H](O)C(=C1C)C2(C)C)C(OC1OCC(O)C(O)C1O)C[C@H]1OC[C@@]31OC(C)=O (stereo partly specified)
GI50 (786-0): 4.93 µM (inactive)
GI50 (A498): 25.5 µM (inactive)
GI50 (A549): 7.24 µM (inactive)
GI50 (ACHN): > 89.1 µM (inactive)
GI50 (BT-549): 2.62 µM (inactive)
GI50 (CCRF-CEM): 1.57 µM (inactive)
GI50 (COLO 205): 0.665 µM (active)
GI50 (DU-145): 2.88 µM (inactive)
GI50 (EKVX): > 64.7 µM (inactive)
GI50 (HCC 2998): 1.6 µM (inactive)
GI50 (HCT-116): 0.516 µM (active)
GI50 (HCT-15): > 100 µM
GI50 (HL-60): 542 nM (active)
GI50 (HOP-62): 5.05 µM (inactive)
GI50 (HOP-92): 24.6 µM (inactive)
GI50 (HT-29): 1.19 µM (inactive)
GI50 (Hs-578T): 0.198 µM (active)
GI50 (IGROV-1): 3.99 µM (inactive)
GI50 (K562): 0.966 µM (active)
GI50 (KM12): 1.21 µM (inactive)
GI50 (M14): 2.32 µM (inactive)
GI50 (MCF7): 1.02 µM (active)
GI50 (MDA-MB-231): 67.6 µM (inactive)
GI50 (MDA-MB-435): 0.202 µM (active)
GI50 (MDA-N): 0.078 µM (active)
GI50 (MOLT-4): 2.45 µM (inactive)
GI50 (NCI-H226): > 100 µM (inactive)
GI50 (NCI-H23): 3.68 µM (inactive)
GI50 (NCI-H460): 0.757 µM (active)
GI50 (NCI-H522): 0.245 µM (active)
GI50 (NCI/ADR-RES): > 100 µM (inactive)
GI50 (OVCAR-3): 0.706 µM (active)
GI50 (OVCAR-4): > 100 µM (inactive)
GI50 (OVCAR-5): > 20.7 µM (inactive)
GI50 (OVCAR-8): 6.35 µM (inactive)
GI50 (PC-3): 1.29 µM (inactive)
GI50 (RPMI-8226): 0.486 µM (active)
GI50 (RXF 393): 1.98 µM (inactive)
GI50 (SF-268): 2.32 µM (inactive)
GI50 (SF-295): 21.2 µM (inactive)
GI50 (SF-539): 0.494 µM (active)
GI50 (SK-MEL-28): 2.7 µM (inactive)
GI50 (SK-MEL-5): 1.9 µM (inactive)
GI50 (SK-OV-3): 3.04 µM (inactive)
GI50 (SN12C): 3.54 µM (inactive)
GI50 (SNB-19): 4.91 µM (inactive)
GI50 (SNB-75): 0.147 µM (active)
GI50 (SR): 2.41 µM (inactive)
GI50 (SW-620): 16.1 µM (inactive)
GI50 (T47D): 1.76 µM (inactive)
GI50 (TK-10): 63.2 µM (inactive)
GI50 (U-251): 1.64 µM (inactive)
GI50 (UACC-257): > 100 µM (inactive)
GI50 (UACC-62): 3.57 µM (inactive)
GI50 (UO-31): > 75.9 µM (inactive)

C[N+](C)(N)Cc1csc(-c2ccc(Cl)cc2)n1
GI50 (786-0): > 100 µM (inactive)
GI50 (A498): 88.5 µM (inactive)
GI50 (A549): 71.8 µM (inactive)
GI50 (ACHN): > 100 µM (inactive)
GI50 (BT-549): 34 µM (inactive)
GI50 (CAKI-1): > 100 µM (inactive)
GI50 (COLO 205): > 100 µM (inactive)
GI50 (DU-145): > 100 µM (inactive)
GI50 (EKVX): 64.3 µM (inactive)
GI50 (HCC 2998): > 100 µM (inactive)
GI50 (HCT-116): > 100 µM (inactive)
GI50 (HCT-15): > 100 µM
GI50 (HOP-62): 75.7 µM (inactive)
GI50 (HOP-92): > 100 µM (inactive)
GI50 (HT-29): > 100 µM (inactive)
GI50 (Hs-578T): 23.9 µM (inactive)
GI50 (IGROV-1): > 100 µM (inactive)
GI50 (K562): > 100 µM (inactive)
GI50 (KM12): > 100 µM (inactive)
GI50 (LOX IMVI): > 100 µM (inactive)
GI50 (M14): > 100 µM (inactive)
GI50 (MCF7): > 100 µM (inactive)
GI50 (MDA-MB-231): > 100 µM (inactive)
GI50 (MDA-MB-435): > 100 µM (inactive)
GI50 (MDA-N): > 100 µM (inactive)
GI50 (Malme-3M): 39.4 µM (inactive)
GI50 (NCI-H226): 48.2 µM (inactive)
GI50 (NCI-H23): > 100 µM (inactive)
GI50 (NCI-H460): > 100 µM (inactive)
GI50 (NCI-H522): 62.4 µM (inactive)
GI50 (NCI/ADR-RES): > 100 µM (inactive)
GI50 (OVCAR-3): 89.5 µM (inactive)
GI50 (OVCAR-4): > 100 µM (inactive)
GI50 (OVCAR-5): > 100 µM (inactive)
GI50 (OVCAR-8): > 100 µM (inactive)
GI50 (PC-3): > 100 µM (inactive)
GI50 (RPMI-8226): > 100 µM (inactive)
GI50 (RXF 393): > 100 µM (inactive)
GI50 (SF-268): 46.5 µM (inactive)
GI50 (SF-295): 67.1 µM (inactive)
GI50 (SF-539): > 100 µM (inactive)
GI50 (SK-MEL-28): > 100 µM (inactive)
GI50 (SK-MEL-2): > 100 µM (inactive)
GI50 (SK-MEL-5): 61.5 µM (inactive)
GI50 (SK-OV-3): > 100 µM (inactive)
GI50 (SN12C): 34.8 µM (inactive)
GI50 (SNB-19): > 100 µM (inactive)
GI50 (SNB-75): 42.4 µM (inactive)
GI50 (SR): > 100 µM (inactive)
GI50 (SW-620): > 100 µM (inactive)
GI50 (T47D): 80 µM (inactive)
GI50 (TK-10): > 100 µM (inactive)
GI50 (U-251): > 100 µM (inactive)
GI50 (UACC-257): > 100 µM (inactive)
GI50 (UACC-62): > 100 µM (inactive)
GI50 (UO-31): > 100 µM (inactive)
